Test results taken from patent US5942663A, “Biocidal proteins” (Zeneca Limited, priority 1991, dated 1999).
Like-named read-outs stand apart in the source and are kept apart here. No end group written: not given here.

Legend:
[1] = test system: Fusarium oxysporum f.sp. pisi; format: cell-based; settings: 48 hours of incubation
Ascochyta pisi = format: cell-based; settings: A pisi, 48 hours of incubation
[2] = test system: Fusarium oxysporum f.sp. lycopersici; format: cell-based; settings: 48 hours of incubation
[3] = test system: Colletotrichum lindemuthianum; format: cell-based; settings: C lindemuthianum
Cercospora beticola = assay: Foliar diseases in vivo test, protectant foliar spray; settings: C beticola on sugarbeet, foliar spray 100 μg/ml
Procedure: The plants were grown in John Innes Potting Compost (No 1 or 2) in 4 cm diameter mini-pots. The protein preparation was formulated immediately prior to use by dissolving in sterile deionised water and diluting to the appropriate concentration. It is assumed that the protein extract contains approximately 1% active ingredient. A pure sample of Mj-AMP1 was similarly prepared. The formulations were applied to the plants as a foliar spray. The spray was applied to maximum discrete droplet retention. Tween 20, to give a final concentration of 0.05%, was added when the spray was applied to cereals. The protein preparation was applied to the foliage (by spraying) one or two days before the plant was inoculated with the disease (protectant application). […] After inoculation, the plants were put into an appropriate environment to allow infection to proceed and then incubated until the disease was ready for assessment. […]
Results are shown in Table 3 for the three fungal pathogens: Septoria nodorum (Fungi Imperfecti) tested on wheat, Plasmopara viticola (Phycomycete) tested on grapevine, and Cercospora beticola tested on sugarbeet. The disease control was recorded by the following grading: 4=no disease; 3=trace-5% of disease on untreated plants; 2=6-25% of disease on untreated plants; 1=26-60% of disease on untreated plants; 0=61-100% of disease on untreated plants.

## Mj-AMP1: antimicrobial protein from Mirabilis jalapa seeds, dimer of two 4 kDa subunits, 37 residues, SEQ ID NO:1 (QCIGNGGRCNENVGPPYCCSGFCLRQPGQGYGYCKNR; cysteine pairing not given here; also: homodimer)
[1]
  IC50: 15 µg/mL
Ascochyta pisi
  IC50: 200 µg/mL
[2]
  IC50: 200 µg/mL
[3]; 48 hours of incubation
  IC50: 6 µg/mL
[3]; after 72 hours
  IC50: 12 µg/mL
Cercospora beticola
  Disease control grading: 3 (3=trace-5% of disease on untreated plants)
